One data set relates to DO11.10 T cells. Put plainly: in vitro screen: 3H-thymidine proliferation of DO11.10 T cells co-cultured with OVA323-339-pulsed dendritic cells (non-specific toxicity screen). The following applies: 5 mM and 0.1 μM; 16:1 and 64:1 ratio T:DC co-cultures. Type of data set: cell-based, mice. As for the experimental part: The initial biological screen for the selected small molecule compounds was based in functional characteristics of enhancement of Th1 function and secretion of Th1 cytokines (e.g., Interferon-γ (IFN-γ)). In this process, dendritic cells (DC) were obtained by GM-CSF stimulation of bone marrow stem cells for 6 days, pulsed for 18 hours with OVA323-339 peptide to load specific antigen on these antigen presenting cells and then purified using CD11c magnetic bead separation. This population of cells is routinely >98% CD11c positive, as determined by flow cytometry. Transgenic T cells with specificity for the ovalbumin 323-339 epitope (OVA323-339) were obtained from naïve spleens of DO11.10 transgenic mice. The splenic cells were harvested and magnetic beads used to isolate the CD4 T cell population. This latter population of cells is routinely >95% CD4^+. The cells were then co-cultured in round-bottomed 96 well tissue culture plates, at varying ratios, maintaining 2×10^5 CD4^+ T cells in each well, and varying the number of dendritic cells added (See FIG. 2). […]
An initial screen was carried out with 18 compounds, using the in vitro screening process established in Example 2, above. Initially, all 18 compounds were evaluated for toxicity at 5 mM and 0.1 μM, by evaluation of proliferation of 16:1 and 64:1 ratio T:DC co-cultures. […]

Data set [1] deals with co-cultures of DC-T cells. Put plainly: in vitro screen: IFN-γ secretion in DO11.10 T cell / OVA323-339-peptide loaded dendritic cell co-cultures. Type of data set: cell-based, mice. The settings on record: for IFN-γ enhancement at the highest concentration: 64:1 ratio, 1000 ng/ml; for IFN-γ secretion compared to control samples: initial screen, 16:1 and 64:1 T:DC co-cultures. The procedure: The initial biological screen for the selected small molecule compounds was based in functional characteristics of enhancement of Th1 function and secretion of Th1 cytokines (e.g., Interferon-γ (IFN-γ)). In this process, dendritic cells (DC) were obtained by GM-CSF stimulation of bone marrow stem cells for 6 days, pulsed for 18 hours with OVA323-339 peptide to load specific antigen on these antigen presenting cells and then purified using CD11c magnetic bead separation. This population of cells is routinely >98% CD11c positive, as determined by flow cytometry. Transgenic T cells with specificity for the ovalbumin 323-339 epitope (OVA323-339) were obtained from naïve spleens of DO11.10 transgenic mice. The splenic cells were harvested and magnetic beads used to isolate the CD4 T cell population. This latter population of cells is routinely >95% CD4^+. The cells were then co-cultured in round-bottomed 96 well tissue culture plates, at varying ratios, maintaining 2×10^5 CD4^+ T cells in each well, and varying the number of dendritic cells added (See FIG. 2).
The in vitro screen for functional activity was based on two parameters. The first parameter, ^3H-thymidine incorporation measuring proliferation of OVA323-339-peptide-specific DO11.10 T cells cultured in the presence of OVA323-339-peptide pulsed GM-CSF derived dendritic cells, should not be affected by CD154-CD40 interactions, and thus was used as a screen for non-specific toxicity of the compounds to immune cell co-cultures. The second parameter, which is controlled in the DO11.10 T cell —OVA323-339-peptide loaded dendritic cell co-cultures by CD40 ligation, is that of Interferon-γ secretion by the activated T cells.
Thus, it was hypothesized that if it was possible to enhance immune function by stabilization of CD154-CD40 ligand pair interactions through prolonged stability of CD154 homotrimers, then IFN-γ production should be increased by addition of the small molecule compounds.
An initial screen was carried out with 18 compounds, using the in vitro screening process established in Example 2, above. Initially, all 18 compounds were evaluated for toxicity at 5 mM and 0.1 μM, by evaluation of proliferation of 16:1 and 64:1 ratio T:DC co-cultures. Second, expression of IFN-γ was observed and compared to that of control samples. Of the initial 18 small molecule compounds, 5 compounds were eliminated at this early stage because they inhibited T cell proliferation and were toxic to the cells in culture. […] These two compounds, JFPH and JFPB, were selected for further study, as described below.
Small molecules in DMSO vehicle were added at various dilutions to co-cultures of DC-T cells and after four days supernatants characterized for the production of IFNγ. […]

Data set [2] deals with experimental autoimmune encephalomyelitis (EAE). The experiment in a line: mouse model of experimental autoimmune encephalomyelitis (EAE), PLP139-151 peptide in CFA. Type of data set: in vivo. The procedure: Experiments were conducted to confirm that the small molecules could stabilize and therefore enhance Th1 effector function in vivo. Efficacy was tested in a mouse model of experimental autoimmune encephalomyelitis (EAE), a model of Multiple Sclerosis (MS) (See, e.g., Karlsson et al., The Journal of Immunology, 2003, 170: 1019-1026).
EAE is dependent upon CD154-CD40 interactions in the central nervous system (CNS). Initial experiments were carried out to determine the effects of these small molecules on clinical disease severity in an optimal process of induction of EAE. The compounds should not modify the severity of clinical disease over that of the vehicle control treated animals, but enhancement and prolonged Th1 responses peripherally may be observed. Second, experiments were conducted to address whether the severity and/or incidence of EAE disease could be enhanced by the small molecule therapy in mice immunized with suboptimal myelin antigenic peptide, such that the small molecules might enhance in vivo functional activity of the antigen specific Th1 cells induced in these mice, that normally would have low incidence and severity of clinical disease.
Mice were immunized with PLP139-151-peptide in CFA and treated on days 9 and 10 with 100 nmol JFPH in olive oil or vehicle alone. Clinical disease was then evaluated. Clinical severity was assessed on a 0 to 5 scale as follows: grade 1, limp tail; grade 2, limp tail and hind limb weakness (waddling gait); grade 3, partial hind limb paralysis; grade 4, complete hind limb paralysis; and grade 5, moribund. The data are plotted as the daily mean clinical score for all animals in a particular treatment group, and mean day of onset for each mouse was determined and plotted (See, FIG. 5(b)) as a box and whisker plot. When optimal EAE induction was carried out using 50 μg doses of PLP139-151 peptide, disease severity was not affected by treatment with 100 nmol JFPH on days 9 and 10 post-immunization. However, the mean day of disease onset was earlier in the JFPH treated mice compared to vehicle controls (p<0.0001) as determined by a Wilcoxon Sign-Rank test.
In experiments where suboptimal induction of EAE was induced with 25 μg doses of PLP139-151 peptide, the incidence of disease was low for vehicle treated mice (60%) compared to that of JFPH treated mice (100%). Briefly, mice were immunized with 25 μg PLP139-151-peptide in CFA and treated on days 0, 1, 8 and 9 with 100 nmol JFPH in olive oil or vehicle of olive oil alone (FIG. 6, treatment days marked by downward triangles). Clinical disease was evaluated and the cumulative mean clinical scores determined by addition of scores cumulatively with each subsequent day of evaluation (FIG. 6, right panel). The average maximum score for vehicle treated mice was 1.2 (due in part to one individual mouse) versus 1.8 for JFPH treated mice, and in both mean day of onset and mean day of peak disease severity, the JFPH treated mice reached these time points an average of 3 days earlier than that of vehicle treated mice.

For data set [3], the system named is syngeneic renal cell carcinoma (RCC) cells. Put plainly: sub-cutaneous renal cell carcinoma tumor model. Type of data set: in vivo, Balb/c mice. The following applies: various concentrations, i.p. in olive oil 3x/week for 3 weeks from day 3. The procedure: (§1) In order to evaluate the efficacy of JFPH in a murine tumor model, Balb/c mice were first injected with syngeneic renal cell carcinoma (RCC) cells. The injections were delivered either sub-cutaneously or orthotopically under the kidney capsule (intra-renal). JFPH drug was diluted in olive oil to a desired concentration. Mice were injected with JFPH in olive oil intra-peritoneally 3×/week for a total of 3 weeks, beginning on day 3 post-tumor cell injection. As a vehicle control, mice were administered with only olive oil (no JFPH). For the sub-cutaneous tumor model, primary tumors were measured with calipers 3×/week and the tumor area was calculated. For the intra-renal tumor model, mice were euthanized on day 21 post tumor-cell injection and the lungs were harvested and placed in fixative. The number of lung metastases were then counted under a dissecting microscope.

For data set [4] the test system is unchanged. The experiment in a line: intra-renal renal cell carcinoma tumor model, lung metastases. Type of data set: in vivo, Balb/c mice. The following applies: 500 nmoles i.p. in olive oil 3x/week for 3 weeks. The procedure: as §1
The mark [5] stands for this setting: suboptimal EAE induction, 25 μg PLP139-151.
[6] abbreviates: suboptimal EAE induction, 25 μg PLP139-151, 100 nmol days 0, 1, 8 and 9.

“Also recorded” adds a separate entry of the source.

For `CCOC(=O)NC(=O)c1cn(CCNc2ncc(C(F)(F)F)cc2Cl)c(=O)[nH]c1=O` [JFPB, ethyl N-[[1-(2-[[3-chloro-5-(trifluoromethyl)-2-pyridinyl]amino]ethyl)-2,4-dioxo-1,2,3,4-tetrahydro-5-pyrimidinyl]carbonyl]carbamate], the T cell proliferation entry with DO11.10 T cells is “no effect”. For the same compound, in data set [1], the “IFN-γ enhancement at the highest concentration” value was “reduced IFN-γ enhancement” and the “IFN-γ secretion compared to control samples” value is “consistently enhanced IFN-γ secretion”.
As to `FC(F)(F)c1cc(N2CCCCCCC2)c2c(Cl)cc(Cl)cc2n1` [JFPH, 4-azocan-1-YL-5,7-dichloro-2-(trifluoromethyl)quinoline], the T cell proliferation entry with DO11.10 T cells is “no effect”. In addition, in data set [1], the “IFN-γ enhancement at the highest concentration” value is “enhancement was observed” and the “IFN-γ secretion compared to control samples” value is “consistently enhanced IFN-γ secretion”. Further, the disease onset result in data set [2] (EAE induced under suboptimal conditions) was “accelerated disease onset”. Also, in data set [2] (optimal EAE induction, 50 μg PLP139-151, 100 nmol days 9 and 10, ± standard deviation), the “mean day of onset” value was 15.47 ± 1.68 days. For the same compound, the “disease severity (clinical score 0 to 5)” value in data set [2] (optimal EAE induction, 50 μg PLP139-151, 100 nmol in olive oil days 9 and 10) is on record as “not affected”. The “disease onset compared to vehicle controls” value in data set [2] (optimal EAE induction, 100 nmol days 9 and 10) is recorded as “accelerated disease onset; also recorded: earlier”. Besides, in data set [2] (setting [5]), the “disease course longer than vehicle control” value was 3 days; the “mean day of onset, earlier than vehicle treated mice” value was determined as 3 days; the “mean day of peak disease severity, earlier than vehicle treated mice” value stood at 3 days. In data set [2] (setting [6]), this compound returned an average maximum score of 1.8 and an incidence of disease of 100%. For the same compound, in data set [2] (suboptimal EAE induction, remission = reduction of one full score for two days), the “mean day of remission versus vehicle” value is “no difference”. In addition, in data set [3], the “sub-cutaneous renal cancer tumor growth (tumor area) versus control mice” value is “delays sub-cutaneous growth of renal cancer; also recorded: delayed renal cancer tumor growth”. Further, the “renal cancer metastasis (number of lung metastases, day 21) versus control mice” value in data set [4] is on record as “reduces renal cancer metastasis; also recorded: significant reduction of renal cancer metastasis”.

The record behind these values is patent US7601355B2, “Compositions and methods for altering immune function” (Northwestern University, priority 2005, dated 2009).
